The values that follow come from patent publication US12421556B2, “Materials and methods for stratifying and treating cancers” (The Institute of Cancer Research:Royal Cancer Hospital, priority 2017, dated 2025).

The test system of one test is advanced STS. Conditions: 1st line, in combination with doxorubicin; cited from earlier work.
Test [1] concerns advanced soft tissue sarcoma. Kind of test: RMH-SARC retrospective cohort: advanced STS patients treated with pazopanib, PFS, OS and RECIST 1.1 response. Format: in vivo, human. The text has this: Collection and analysis of anonymised archival FFPE tissue and associated clinical data was approved in as a sub-study protocol amendment to the Royal Marsden-sponsored Elucidation of a Molecular signature of Pazopanib Response in Advanced soft tissue Sarcoma including solitary fibrous tumours (EMPRASS) study. (RMH Committee for Clinical Research reference 4107, NHS Research Ethic Committee reference 14/WA/0164). This cohort is referred to as RMH-SARC in this manuscript.
Patients were retrospectively identified for inclusion by search of institutional database and electronic patient records compiled during routine clinical practice. Eligibility criteria for inclusion were: i) histopathological diagnosis of soft tissue tumour as confirmed by contemporaneous report by specialist sarcoma histopathologist; ii) received at least one dose of pazopanib for treatment of unresectable or advanced STS; iii) available FFPE tumour specimen, obtained from patient prior to first dose of pazopanib. Treatment and response monitoring was as per standard institutional practice, with pazopanib at 800 mg once daily until disease progression, intolerable toxicity or significant clinical deterioration. Dose interruption and/or reduction were instigated based on standard institutional guidelines and the discretion of the treating physician. Baseline clinico-pathological characteristics and survival data were collected on retrospective review of contemporaneous electronic medical records. All related radiological imaging was retrospectively reviewed and disease response assessed according to RECIST 1.1. This manuscript is written according to the Reporting Recommendations for Tumor Marker Prognostic Studies (REMARK) guidelines15.
The stepwise primary objectives were to assess whether a surrogate of two immunohistochemical markers (FGFR1 and PDGFRA) and TP53 mutation status had statistical significant prognostic information for advanced STS. In this event, the two biomarkers panel were tested to determine if there is added statistically significant prognostic information to standard clinicopathological variables in multivariable comparisons. The secondary analyses included identification of biological subgroups based on gene expression profiles, and evaluation of the significance of these biological subgroups association with patient outcome. Progression free survival (PFS—defined as time in months from first dose of pazopanib to radiological disease progression or death from any cause) was the primary outcome endpoint, with overall survival (OS—defined as a time in months from first dose of pazopanib to death from any cause) as the secondary outcome endpoint. Data cut-off for survival follow-up was 30 Nov. 2016. Statistical analyses were performed by two senior statisticians. The Kaplan-Meier method was used to estimate PFS and OS, and the log-rank test to compare survival in different strata. Multivariable cox regression model was used to estimate the significance adjusted for the standard clinicopathological variables (including age, tumour grade, performance status and histological subtype). Proportional hazard assumption was tested using Schoenfeld residuals, and where deemed appropriate, Restricted Mean Survival was used. Interaction tests between FGFR1 and PDGFRA expression to predict for survival were evaluated for PFS and OS respectively. Likelihood ratio tests based on proportional hazards regression were used to test the prognostic information of all biomarkers. The quantification of the amount of prognostic information provided by one biomarker was assessed by the likelihood ratio χ^2 value (LRχ^2), and the additional information of one biomarker to biomarker score was measured by the increase of the likelihood ratio χ^2 value (ΔLRχ^2) obtained from the proportional hazards model.
Patients were identified by retrospective search of prospectively compiled institutional database and electronic patient records. […]

In the next test the test system is STS subtypes. Conditions: randomised phase II trial; cited from earlier work.
Where [2] appears, read: F-Lo/P-Hi (FGFR1-Lo/PDGFRA-Hi) subgroup.
[3] abbreviates: gene expression subgroup A (IHCneg, TP53 wt).

Regarding olaratumab, in the test on advanced STS, the OS benefit entry is listed as “marked OS benefit”.

Take `Cc1ccc(Nc2nccc(N(C)c3ccc4c(C)n(C)nc4c3)n2)cc1S(N)(=O)=O` [pazopanib, Pazopanib]: the “patients who had died (overall survival event)” value in test [1] (31 of 38 patients, median follow-up 26.2 months) was 82%. Further, in test [1] (35 of 38 patients, median follow-up 26.2 months), the “patients with a progression-free survival event” value worked out at 92%. For the same compound, the “median OS” value in test [1] (setting [2]) was found to be 1.7 months; in test [1] (setting [3]), 34.4 months; in test [1] (whole cohort, 38 patients), 9.5 months. In addition, the “median PFS” value came to 1.4 months in test [1] (setting [2]); 12.8 months in test [1] (setting [3]); 6.4 months in test [1] (patients with partial response or stable disease); 3.7 months in test [1] (whole cohort, 38 patients, pazopanib 800 mg once daily). The “PFS HR, multivariable analysis” value is 12.54 in test [1] (F-Lo/P-Hi v. IHCneg, adjusted for clinico-pathological factors, 95% CI 3.86-40.72) and 3.97 in test [1] (TP53 mutation v. wildtype, adjusted, 95% CI 1.45-10.86, p=0.007). Also, the “OS HR, multivariable analysis” value in test [1] (F-Lo/P-Hi v. IHCneg, adjusted, 95% CI 5.90-82.81) came to 22.11; in test [1] (TP53 mutation v. wildtype, adjusted, 95% CI 2.56-24.41), 7.90. The “OS HR, univariate analysis” value in test [1] (FGFR1-Lo/PDGFRA-Hi v. IHCneg, 95% CI 2.51-17.91) came to 6.70; in test [1] (TP53 mutated v. wildtype, all 38 patients, 95% CI 1.15-5.51, P 0.02), 2.51. Moreover, the “PFS HR, univariate analysis” value in test [1] (FGFR1-Lo/PDGFRA-Hi v. IHCneg, 95% CI 3.58-25.94) was 9.64; in test [1] (TP53 mutated v. wildtype, all 38 patients, 95% CI 0.83-3.76, P 0.14), 1.77. Also, the “progression as best response” value in test [1] (RECIST 1.1, 17/38) came out at 44.7%. The objective radiological response in test [1] (RECIST 1.1, best response, 1/38) turned out to be 2.6%. Moreover, the stable disease in test [1] (RECIST 1.1, best response, 20/38) is 52.6%. The “PFS HR” value in test [1] (TP53 mutation v. wildtype in 31 IHCneg cases, 95% CI 1.03-5.34, p=0.04) worked out at 2.34; in test [1] (subgroup A v. subgroup B or C, 22 IHCnegTP53 wt patients, 95% CI 0.09-0.85, p=0.02), 0.27. Also, the “OS HR” value in test [1] (TP53 mutation v. wildtype in 31 IHCneg cases, 95% CI 1.44-8.39, p=0.003) came out at 3.47; in test [1] (high v. low PDGFRA expression, 95% CI 1.01-4.35, p=0.04) it was 2.08; in test [1] (subgroup A v. subgroup B or C, 22 IHCnegTP53 wt patients, 95% CI 0.04-0.96, p=0.03) it was 0.20.

For `CNC(=O)c1cc(Oc2ccc(NC(=O)Nc3ccc(Cl)c(C(F)(F)F)c3)c(F)c2)ccn1` [regorafenib, Regorafenib], in the test on STS subtypes, the “efficacy in STS subtypes” value is “efficacy in several STS subtypes but not adipocytic tumours”.
